Laboratory results from US8889676B2, “3-ureidoisoquinolin-8-yl derivatives” (Actelion Pharmaceuticals Ltd., priority 2011, dated 2014).
Converted amounts (≈) assume the structure as drawn.

test system: S. pneumoniae ATCC 49619; assay: Minimal inhibitory concentration (MIC) by broth microdilution (CLSI M7-A7); format: cell-based, Streptococcus pneumoniae; settings: Streptococcus pneumoniae, ATCC49619; cation-adjusted Mueller Hinton Broth supplemented with 3% (v/v) lysed horse blood; microdilution method
Method: Minimal inhibitory concentrations (MICs; mg/l) were determined in cation-adjusted MuellerHinton Broth (supplemented with 3% (v/v) lysed horse blood for testing Streptococcus pneumoniae) by a microdilution method following the description given in “Methods for Dilution Antimicrobial Susceptibility Tests for Bacteria that Grow Aerobically”, Approved standard, 7th ed., a Clinical and Laboratory Standards Institute (CLSI) Document M7-A7, Wayne, Pa., USA, 2006.

Structure (SMILES)	MIC
CCNC(=O)Nc1cc2c(-c3ccnc(N)c3)ccc(CNC(=O)OC)c2cn1 [Example 163, [5-(2-amino-pyridin-4-yl)-3-(3-ethyl-ureido)-isoquinolin-8-ylmethyl]-carbamic acid methyl ester]	0.5 µg/mL (≈ 1.27 µM)
C#CCOC(=O)NCc1ccc(-c2ccccc2O)c2cc(NC(=O)NCC)ncc12.Cl [Example 139, [3-(3-ethyl-ureido)-5-(2-hydroxy-phenyl)-isoquinolin-8-ylmethyl]-carbamic acid prop-2-ynyl ester hydrochloride]	1 µg/mL
CCNC(=O)Nc1cc2c(-c3ccncc3)ccc(CNC(=O)CC(=O)O)c2cn1 [Example 45, N-[3-(3-ethyl-ureido)-5-pyridin-4-yl-isoquinolin-8-ylmethyl]-malonamic acid]	8 µg/mL (≈ 19.6 µM)
C#CC(C)OC(=O)NCc1ccc(-c2ccncc2)c2cc(NC(=O)NCC)ncc12 (racemic) [Example 108, (±)-[3-(3-ethyl-ureido)-5-pyridin-4-yl-isoquinolin-8-ylmethyl]-carbamic acid 1-methyl-prop-2-ynyl ester]	0.25 µg/mL (≈ 0.599 µM)
CCNC(=O)Nc1cc2cccc(CNC(=O)OCCF)c2cn1.Cl [Example 27, [3-(3-ethyl-ureido)-isoquinolin-8-ylmethyl]-carbamic acid 2-fluoro-ethyl ester hydrochloride]	4 µg/mL
C#CCOC(=O)NCc1ccc(-c2ccc(O)cc2)c2cc(NC(=O)NCC)ncc12.Cl [Example 138, [3-(3-ethyl-ureido)-5-(4-hydroxy-phenyl)-isoquinolin-8-ylmethyl]-carbamic acid prop-2-ynyl ester hydrochloride]	0.5 µg/mL
CCNC(=O)Nc1cc2cccc(CNC(=O)CC#N)c2cn1 [Example 5, 2-cyano-N-[3-(3-ethyl-ureido)-isoquinolin-8-ylmethyl]-acetamide]	4 µg/mL (≈ 12.8 µM)
CCNC(=O)Nc1cc2c(-c3ccncc3)ccc(CNC(=O)OCCOC)c2cn1 [Example 114, [3-(3-ethyl-ureido)-5-pyridin-4-yl-isoquinolin-8-ylmethyl]-carbamic acid 2-methoxy-ethyl ester]	0.5 µg/mL (≈ 1.18 µM)
C#CCCC(=O)NCc1cccc2cc(NC(=O)NCC)ncc12 [Example 17, pent-4-ynoic acid [3-(3-ethyl-ureido)-isoquinolin-8-ylmethyl]-amide]	8 µg/mL (≈ 24.7 µM)
C#CCOC(=O)NCc1ccc(-c2cccnc2)c2cc(NC(=O)NCC)ncc12.Cl [Example 125, [3-(3-ethyl-ureido)-5-pyridin-3-yl-isoquinolin-8-ylmethyl]-carbamic acid prop-2-ynyl ester hydrochloride]	1 µg/mL
CCNC(=O)Nc1cc2cccc(CNC(=O)c3ccccn3)c2cn1 [Example 11, pyridine-2-carboxylic acid [3-(3-ethyl-ureido)-isoquinolin-8-ylmethyl]-amide]	2 µg/mL (≈ 5.72 µM)
CCNC(=O)Nc1cc2c(-c3cc(F)ncc3C)ccc(CNC(=O)OC)c2cn1.Cl [Example 186, [3-(3-ethyl-ureido)-5-(2-fluoro-5-methyl-pyridin-4-yl)-isoquinolin-8-ylmethyl]-carbamic acid methyl ester hydrochloride]	2 µg/mL
CCNC(=O)Nc1cc2c(-c3ccnc(C)c3)ccc(CN(C)C(=O)OC)c2cn1 [Example 180, [3-(3-ethyl-ureido)-5-(2-methyl-pyridin-4-yl)-isoquinolin-8-ylmethyl]-methyl-carbamic acid methyl ester]	8 µg/mL (≈ 19.6 µM)
C#CCOC(=O)NCc1ccc(-c2ccc(CO)cc2)c2cc(NC(=O)NCC)ncc12.Cl [Example 143, [3-(3-ethyl-ureido)-5-(4-hydroxymethyl-phenyl)-isoquinolin-8-ylmethyl]-carbamic acid prop-2-ynyl ester hydrochloride]	0.5 µg/mL
CCNC(=O)Nc1cc2c(-c3ccncc3)ccc(CNC(=O)c3ncc[nH]3)c2cn1 [Example 74, 1H-imidazole-2-carboxylic acid [3-(3-ethyl-ureido)-5-pyridin-4-yl-isoquinolin-8-ylmethyl]-amide]	0.25 µg/mL (≈ 0.602 µM)
CCNC(=O)Nc1cc2c(-c3ccncc3)ccc(CNC(=O)CCN(C)C(=O)OC(C)(C)C)c2cn1 [Example 58, (2-{[3-(3-ethyl-ureido)-5-pyridin-4-yl-isoquinolin-8-ylmethyl]-carbamoyl}-ethyl)-methyl-carbamic acid tert-butyl ester]	2 µg/mL (≈ 3.95 µM)
CCNC(=O)Nc1cc2c(-c3ccncc3)ccc(CNC(=O)CNC(=O)OC(C)(C)C)c2cn1 [Example 47, ({[3-(3-ethyl-ureido)-5-pyridin-4-yl-isoquinolin-8-ylmethyl]-carbamoyl}-methyl)-carbamic acid tert-butyl ester]	1 µg/mL (≈ 2.09 µM)
C#CCOC(=O)NCc1ccc(-c2ccnc(N)c2)c2cc(NC(=O)NCC)ncc12.Cl [Example 144, [5-(2-amino-pyridin-4-yl)-3-(3-ethyl-ureido)-isoquinolin-8-ylmethyl]-carbamic acid prop-2-ynyl ester hydrochloride]	0.5 µg/mL

Structure (SMILES)	MIC
CCNC(=O)Nc1cc2cccc(CNC(=O)c3cnn[nH]3)c2cn1 [Example 183, 3H-[1,2,3]triazole-4-carboxylic acid [3-(3-ethyl-ureido)-isoquinolin-8-ylmethyl]-amide]	1 µg/mL (≈ 2.95 µM)
CCNC(=O)Nc1cc2cccc(CNC(=O)CNC(C)=O)c2cn1 [Example 8, 2-acetylamino-N-[3-(3-ethyl-ureido)-isoquinolin-8-ylmethyl]-acetamide]	8 µg/mL (≈ 23.3 µM)
CCNC(=O)Nc1cc2c(-c3ccnc(C)c3)ccc(CNC(=O)C3CC3)c2cn1 [Example 154, cyclopropanecarboxylic acid [3-(3-ethyl-ureido)-5-(2-methyl-pyridin-4-yl)-isoquinolin-8-ylmethyl]-amide]	0.5 µg/mL (≈ 1.24 µM)
CCNC(=O)Nc1cc2c(F)ccc(CNC(=O)OCCOC)c2cn1 [Example 151, [3-(3-ethyl-ureido)-5-fluoro-isoquinolin-8-ylmethyl]-carbamic acid 2-methoxy-ethyl ester]	2 µg/mL (≈ 5.49 µM)
CCNC(=O)Nc1cc2c(-c3ccncc3)ccc(CNC(=O)OCCN3CCN(C(=O)OC(C)(C)C)CC3)c2cn1 [Example 83, tert-butyl 4-(2-((((3-(3-ethylureido)-5-(pyridin-4-yl)isoquinolin-8-yl)methyl)carbamoyl)oxy)ethyl)piperazine-1-carboxylate]	1 µg/mL (≈ 1.73 µM)
CCNC(=O)Nc1cc2c(-c3ccncc3)ccc(CNC(C)=O)c2cn1 [Example 64, N-[3-(3-ethyl-ureido)-5-pyridin-4-yl-isoquinolin-8-ylmethyl]-acetamide]	0.5 µg/mL (≈ 1.38 µM)
C#CCOC(=O)NCc1ccc(-c2cccc(C(N)=O)c2)c2cc(NC(=O)NCC)ncc12.Cl [Example 136, [5-(3-carbamoyl-phenyl)-3-(3-ethyl-ureido)-isoquinolin-8-ylmethyl]-carbamic acid prop-2-ynyl ester hydrochloride]	2 µg/mL
CCNC(=O)Nc1cc2c(-c3ccncc3)ccc(CNC(=O)CN)c2cn1.Cl [Example 50, 2-amino-N-[3-(3-ethyl-ureido)-5-pyridin-4-yl-isoquinolin-8-ylmethyl]-acetamide hydrochloride]	4 µg/mL
CCNC(=O)Nc1cc2c(-c3ccncc3)ccc(CNC(=O)OCCC(N)=O)c2cn1 [Example 182, [3-(3-ethyl-ureido)-5-pyridin-4-yl-isoquinolin-8-ylmethyl]-carbamic acid 2-carbamoyl-ethyl ester]	2 µg/mL (≈ 4.58 µM)
CCNC(=O)Nc1cc2cccc(CNC(=O)c3ccccc3)c2cn1 [Example 4, N-[3-(3-ethyl-ureido)-isoquinolin-8-ylmethyl]-benzamide]	2 µg/mL (≈ 5.74 µM)
CCNC(=O)Nc1cc2c(-c3ccnc(C)c3)ccc(CNC(=O)c3ncc[nH]3)c2cn1 [Example 156, 1H-imidazole-2-carboxylic acid [3-(3-ethyl-ureido)-5-(2-methyl-pyridin-4-yl)-isoquinolin-8-ylmethyl]-amide]	0.5 µg/mL (≈ 1.16 µM)
C#CCOC(=O)NCc1ccc(-c2ccncc2C)c2cc(NC(=O)NCC)ncc12 [Example 126, [3-(3-ethyl-ureido)-5-(3-methyl-pyridin-4-yl)-isoquinolin-8-ylmethyl]-carbamic acid prop-2-ynyl ester]	1 µg/mL (≈ 2.4 µM)
C#CCOC(=O)NCc1ccc(-c2ccc(N)nc2)c2cc(NC(=O)NCC)ncc12.Cl [Example 131, [5-(6-amino-pyridin-3-yl)-3-(3-ethyl-ureido)-isoquinolin-8-ylmethyl]-carbamic acid prop-2-ynyl ester hydrochloride]	0.5 µg/mL
C#CCOC(=O)NCc1ccc(-c2ccc(C(=O)O)cc2)c2cc(NC(=O)NCC)ncc12.Cl [Example 137, 4-[3-(3-ethyl-ureido)-8-(prop-2-ynyloxycarbonylamino-methyl)-isoquinolin-5-yl]-benzoic acid hydrochloride]	0.25 µg/mL
CCNC(=O)Nc1cc2c(-c3ccncc3)ccc(CNC(=O)OCCN3CCNC3=O)c2cn1.Cl [Example 93, [3-(3-ethyl-ureido)-5-pyridin-4-yl-isoquinolin-8-ylmethyl]-carbamic acid 2-(2-oxo-imidazolidin-1-yl)-ethyl ester hydrochloride]	8 µg/mL
CCNC(=O)Nc1cc2c(-c3ccncc3)ccc(CNC(=O)CC)c2cn1 [Example 59, N-[3-(3-ethyl-ureido)-5-pyridin-4-yl-isoquinolin-8-ylmethyl]-propionamide]	0.5 µg/mL (≈ 1.32 µM)
CCNC(=O)Nc1cc2cccc(CNC(=O)Cc3ccccc3)c2cn1 [Example 12, N-[3-(3-ethyl-ureido)-isoquinolin-8-ylmethyl]-2-phenyl-acetamide]	1 µg/mL (≈ 2.76 µM)
C#CCOC(=O)NCc1ccc(-c2cccc(CNC(C)=O)c2)c2cc(NC(=O)NCC)ncc12.Cl [Example 132, {5-[3-(acetylamino-methyl)-phenyl]-3-(3-ethyl-ureido)-isoquinolin-8-ylmethyl}-carbamic acid prop-2-ynyl ester hydrochloride]	4 µg/mL
